For assay [1], the system named is gastrointestinal stromal tumors (GIST). The note with it: third line therapy; cited from earlier work.
For the next assay, the target named is T1, BAF3 FL KIT EX11DEL (Homo sapiens, UniProt P10721, cells depend on it, form not given).
T1 construct: BAF3 FL KIT EX11DEL
The assay can be described thus: c-Kit assay: Ba/F3 KIT mutant cell viability (Cell Titer-Glo, 72 hours). It counts as cell-based. The note with it: viability after 72 hours. The method in brief:
(§1)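 Ba/F3 cells made IL-3-independent by lentiviral KIT mutant expression, grown in RPMI/10% FBS at 37 °C. Eight 4-fold compound concentrations (10 μM to 0.61 nM) for 72 h; Cell Titer-Glo viability normalised to vehicle, IC50 from dose–response curves.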

Assay [2] has as its target T2, BAF3 FL KIT EX11DEL/D816H (Homo sapiens, UniProt P10721, D816H, cells depend on it, form not given).
T2 construct: BAF3 FL KIT EX11DEL/D816H
Described as above. The settings on record: viability after 72 hours. Format: cell-based. The essentials:
as §1

Assay [3] addresses T3, BAF3 FL KIT EX11DEL/V654A (Homo sapiens, UniProt P10721, V654A, cells depend on it, form not given).
T3 construct: BAF3 FL KIT EX11DEL/V654A
The assay is described as above. Format: cell-based. The settings on record: viability after 72 hours. The essentials: as §1

Assay [4] deals with T4, BAF3 FL KIT EX11DEL/T670I (Homo sapiens, UniProt P10721, T670I, cells depend on it, form not given).
T4 construct: BAF3 FL KIT EX11DEL/T670I
The description is as above. It counts as cell-based. The settings on record: viability after 72 hours. The essentials:
as §1

T1 sequence (P10721 with tags, fused parts or gaps DEL557-558): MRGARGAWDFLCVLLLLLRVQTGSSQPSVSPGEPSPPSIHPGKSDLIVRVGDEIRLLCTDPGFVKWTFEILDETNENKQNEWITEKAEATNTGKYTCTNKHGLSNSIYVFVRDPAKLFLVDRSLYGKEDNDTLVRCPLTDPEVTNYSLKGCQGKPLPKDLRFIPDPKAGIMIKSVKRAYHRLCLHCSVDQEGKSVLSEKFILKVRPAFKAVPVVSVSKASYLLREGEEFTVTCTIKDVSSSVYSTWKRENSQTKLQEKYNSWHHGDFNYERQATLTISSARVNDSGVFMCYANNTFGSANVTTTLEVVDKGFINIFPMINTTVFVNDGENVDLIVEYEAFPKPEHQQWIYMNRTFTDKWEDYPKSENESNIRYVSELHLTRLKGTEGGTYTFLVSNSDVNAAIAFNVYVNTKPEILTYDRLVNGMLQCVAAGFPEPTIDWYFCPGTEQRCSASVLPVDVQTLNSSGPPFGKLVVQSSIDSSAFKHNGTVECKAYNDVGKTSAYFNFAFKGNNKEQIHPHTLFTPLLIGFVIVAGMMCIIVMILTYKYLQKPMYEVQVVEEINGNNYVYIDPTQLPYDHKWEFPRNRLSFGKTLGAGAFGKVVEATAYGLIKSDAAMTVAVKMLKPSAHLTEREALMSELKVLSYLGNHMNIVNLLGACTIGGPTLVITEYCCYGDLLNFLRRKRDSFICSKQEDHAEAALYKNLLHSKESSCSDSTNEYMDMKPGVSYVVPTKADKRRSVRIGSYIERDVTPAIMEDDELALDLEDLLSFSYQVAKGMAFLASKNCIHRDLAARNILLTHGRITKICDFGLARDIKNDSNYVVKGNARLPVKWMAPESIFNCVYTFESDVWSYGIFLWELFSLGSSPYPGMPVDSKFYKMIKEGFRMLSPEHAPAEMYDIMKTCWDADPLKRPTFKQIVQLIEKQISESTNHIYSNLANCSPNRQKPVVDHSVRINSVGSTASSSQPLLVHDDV
T2 sequence (P10721 with tags, fused parts or gaps DEL557-558/D816H, form open): as the sequence (P10721 with tags, fused parts or gaps DEL557-558) above, with D814H counted along it
T3 sequence (P10721 with tags, fused parts or gaps DEL557-558/V654A, form open): as the sequence (P10721 with tags, fused parts or gaps DEL557-558) above, with V652A counted along it
T4 sequence (P10721 with tags, fused parts or gaps DEL557-558/T670I, form open): as the sequence (P10721 with tags, fused parts or gaps DEL557-558) above, with T668I counted along it

With `CNC(=O)c1cc(Oc2ccc(NC(=O)Nc3ccc(Cl)c(C(F)(F)F)c3)c(F)c2)ccn1` [Regorafenib], in assay [1], the ORR was 4.5% and the “median PFS” value is recorded as 4.8 months.

In the case of `CCN(C)C(=O)Nc1ncc(C#Cc2cc(C(=O)Nc3cc(C(F)(F)F)ccn3)ccc2C)s1` [I-8, 3-((2-(3-ethyl-3-methylureido)thiazol-5-yl)ethynyl)-4-methyl-N-(4-(trifluoromethyl)pyridin-2-yl)benzamide], the GI50 (in general, the concentration giving 50% growth inhibition) on BAF3 FL KIT EX11DEL is under 10 nM; in assay [2], under 10 nM; in assay [3] it was 10 to 50 nM; in assay [4], under 10 nM.

In the case of `Cc1ccc(C(=O)Nc2cc(C(F)(F)F)ccn2)cc1C#Cc1cnc(NC(=O)N(C)C)s1` [I-1, 3-((2-(3,3-dimethylureido)thiazol-5-yl)ethynyl)-4-methyl-N-(4-(trifluoromethyl)pyridin-2-yl)benzamide], the GI50 (at BAF3 FL KIT EX11DEL; in assay [2]; in assay [3]; in assay [4]) was under 10 nM throughout.
